Columns and labels:
[1] = Metabolic stability in human liver microsomes assessed as half-life incubated for 5 to 45 mins in presence of NADPH by LC-MS analysis; type: ADME, Microsome; conditions: time 5-45 min
[2] = Cmax in rat at 5 mg/kg, po; type: ADME, organism-based; set-up: route oral, dose 5 mg/kg; conditions: in vivo
[3] = Inhibition of HCV 2a NS3/4A protease; set-up: species or system Hepatitis C virus subtype 2a
[4] = target: T1, Cytochrome P450 3A4 (Homo sapiens, UniProt P08684); test: Inhibition of human CYP3A4 in human pooled liver microsomes in presence of testosterone as substrate preincubated for 0 mins in presence of NADPH followed by addition of substrate by LC-MS/MS analysis; type: ADME
T1 sequence (P08684 whole entry): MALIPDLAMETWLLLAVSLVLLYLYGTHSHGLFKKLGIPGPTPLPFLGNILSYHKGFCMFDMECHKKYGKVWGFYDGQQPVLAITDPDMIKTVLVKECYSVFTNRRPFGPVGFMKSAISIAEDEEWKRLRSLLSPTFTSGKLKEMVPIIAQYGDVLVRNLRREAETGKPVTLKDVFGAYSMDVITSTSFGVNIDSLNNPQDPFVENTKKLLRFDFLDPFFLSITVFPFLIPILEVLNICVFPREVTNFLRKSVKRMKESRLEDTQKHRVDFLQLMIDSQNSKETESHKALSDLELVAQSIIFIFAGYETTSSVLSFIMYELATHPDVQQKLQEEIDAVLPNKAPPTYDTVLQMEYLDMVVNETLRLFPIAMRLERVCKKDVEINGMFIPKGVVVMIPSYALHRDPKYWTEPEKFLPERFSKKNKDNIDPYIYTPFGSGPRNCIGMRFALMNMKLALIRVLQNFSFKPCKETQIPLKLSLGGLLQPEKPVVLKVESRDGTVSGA

[5] = Half-life in rat at 5 mg/kg, po or 1 mg/kg, iv; type: ADME, organism-based; conditions: in vivo
[6] = Inhibition of HCV 5a NS3/4A protease; set-up: species or system Hepatitis C virus subtype 5a
[7] = Inhibition of HCV 2b NS3/4A protease preincubated for 45 mins in presence of compound; set-up: species or system Hepatitis C virus subtype 2b
[8] = Oral bioavailability in cynomolgus monkey at 3 mg/kg; type: ADME, organism-based, Macaca fascicularis; conditions: in vivo
[9] = Selectivity index, ratio of IC50 for inhibition of HCV 6a NS3/4A protease to IC50 for inhibition of HCV 6a NS3/4A protease preincubated for 45 mins in presence of compound
[10] = Inhibition of HCV 1b NS3/4A protease; set-up: species or system Hepatitis C virus subtype 1b
[11] = Inhibition of HCV 6a NS3/4A protease preincubated for 45 mins in presence of compound; set-up: species or system Hepatitis C virus subtype 6a
[12] = Inhibition of recombinant full length NS3/4A protease in Hepatitis C virus subtype 1b replicon infected in human HuH7 cells preincubated for 3 days followed by substrate addition and measured after 2 hrs by renilla luciferase reporter gene assay; type: cell-based; conditions: Huh-7
[13] = Half-life in dog at 3 mg/kg, po or 1 mg/kg, iv; type: ADME, organism-based, Canis lupus familiaris; conditions: in vivo
[14] = Inhibition of recombinant full length NS3/4A protease in Hepatitis C virus subtype 3a infected in human HuH7 cells using Ac-Asp-Glu-Asp (EDANS)-Glu-Glu-Abu-(COO) Ala-Ser-Lys (DABCYL)-NH2 as substrate by FRET assay; conditions: Huh-7
[15] = Inhibition of recombinant full length NS3/4A R155K mutant protease in Hepatitis C virus subtype 1a replicon infected in human HuH7 cells preincubated for 3 days followed by substrate addition and measured after 2 hrs by renilla luciferase reporter gene assay; type: cell-based; conditions: Huh-7
[16] = AUC in cynomolgus monkey at 3 mg/kg, po or 1 mg/kg, iv; type: ADME, organism-based, Macaca fascicularis; set-up: dose 3 mg/kg; conditions: in vivo
[17] = Oral bioavailability in dog at 3 mg/kg; type: ADME, organism-based, Canis lupus familiaris; conditions: in vivo
[18] = Clearance in cynomolgus monkey at 3 mg/kg, po or 1 mg/kg, iv; type: ADME, organism-based, Macaca fascicularis; conditions: in vivo
[19] = Half-life in cynomolgus monkey at 3 mg/kg, po or 1 mg/kg, iv; type: ADME, organism-based, Macaca fascicularis; conditions: in vivo
[20] = Half life in rat at 1 mg/kg, iv; type: ADME, organism-based; conditions: in vivo
[21] = Drug concentration in rat plasma at 5 mg/kg, po measured upto 24 hrs; type: ADME, organism-based; conditions: read-out: Ct
[22] = Inhibition of HCV 3a NS3/4A protease; set-up: species or system Hepatitis C virus subtype 3a
[23] = Inhibition of recombinant full length NS3/4A D168V mutant protease in Hepatitis C virus subtype 1b replicon infected in human HuH7 cells preincubated for 3 days followed by substrate addition and measured after 2 hrs by renilla luciferase reporter gene assay; type: cell-based; conditions: Huh-7
[24] = Inhibition of HCV 5a NS3/4A protease preincubated for 45 mins in presence of compound; set-up: species or system Hepatitis C virus subtype 5a
[25] = Inhibition of recombinant full length NS3/4A protease in Hepatitis C virus subtype 3a replicon infected in human HuH7 cells preincubated for 3 days followed by substrate addition and measured after 2 hrs by renilla luciferase reporter gene assay; type: cell-based; conditions: Huh-7
[26] = Selectivity index, ratio of IC50 for inhibition of HCV 1a NS3/4A protease to IC50 for inhibition of HCV 1a NS3/4A protease preincubated for 45 mins in presence of compound
[27] = Drug concentration in dog plasma at 3 mg/kg, po measured upto 24 hrs; type: ADME, organism-based, Canis lupus familiaris; conditions: read-out: Ct
[28] = Inhibition of HCV 1a NS3/4A protease; set-up: species or system Hepatitis C virus subtype 1a
[29] = Selectivity index, ratio of IC50 for inhibition of HCV 4a NS3/4A protease to IC50 for inhibition of HCV 4a NS3/4A protease preincubated for 45 mins in presence of compound
[30] = AUC (0 to 24 hrs) in rat at 5 mg/kg, po; type: ADME, organism-based; set-up: time < 24 hr, route oral, dose 5 mg/kg; conditions: in vivo
[31] = target: T1, Cytochrome P450 3A4; test: Inhibition of human CYP3A4 in human pooled liver microsomes in presence of midazolam as substrate preincubated for 0 mins in presence of NADPH followed by addition of substrate by LC-MS/MS analysis; type: ADME
[32] = Selectivity index, ratio of IC50 for inhibition of HCV 2b NS3/4A protease to IC50 for inhibition of HCV 2b NS3/4A protease preincubated for 45 mins in presence of compound
[33] = target: T1, Cytochrome P450 3A4; test: Inhibition of human CYP3A4 in human pooled liver microsomes in presence of midazolam as substrate preincubated for 30 mins in presence of NADPH followed by addition of substrate by LC-MS/MS analysis; type: ADME
[34] = Selectivity index, ratio of IC50 for inhibition of HCV 3a NS3/4A protease to IC50 for inhibition of HCV 3a NS3/4A protease preincubated for 45 mins in presence of compound
[35] = Inhibition of recombinant full length NS3/4A protease in Hepatitis C virus subtype 2a replicon infected in human HuH7 cells preincubated for 3 days followed by substrate addition and measured after 2 hrs by renilla luciferase reporter gene assay; type: cell-based; conditions: Huh-7
[36] = Inhibition of HCV 2b NS3/4A protease; set-up: species or system Hepatitis C virus subtype 2b
[37] = Inhibition of HCV 3a NS3/4A protease preincubated for 45 mins in presence of compound; set-up: species or system Hepatitis C virus subtype 3a
[38] = Inhibition of HCV 2a NS3/4A protease preincubated for 45 mins in presence of compound; set-up: species or system Hepatitis C virus subtype 2a
[39] = Drug concentration in cynomolgus monkey plasma at 3 mg/kg, po measured upto 24 hrs; type: ADME, organism-based, Macaca fascicularis; conditions: read-out: Ct
[40] = Clearance in rat at 1 mg/kg, iv; type: ADME, organism-based; conditions: in vivo
[41] = Clearance in rat at 5 mg/kg, po or 1 mg/kg, iv; type: ADME, organism-based; conditions: in vivo
[42] = Inhibition of HCV 1b NS3/4A protease preincubated for 45 mins in presence of compound; set-up: species or system Hepatitis C virus subtype 1b
[43] = Selectivity index, ratio of IC50 for inhibition of HCV 1b NS3/4A protease to IC50 for inhibition of HCV 1b NS3/4A protease preincubated for 45 mins in presence of compound
[44] = Inhibition of recombinant full length NS3/4A protease in Hepatitis C virus subtype 1a replicon infected in human HuH7 cells preincubated for 3 days followed by substrate addition and measured after 2 hrs by renilla luciferase reporter gene assay; type: cell-based; conditions: Huh-7
[45] = Inhibition of HCV 4a NS3/4A protease; set-up: species or system Hepatitis C virus subtype 4a

Question: With `CC[C@@H]1C[C@H](C)CC/C=C\[C@@H]2C[C@@]2(C(=O)NS(=O)(=O)C2(C)CC2)NC(=O)[C@@H]2C[C@@H](Oc3nccc4cc(OC)c(F)cc34)CN2C(=O)[C@H]1NC(=O)OC(C)(C)C(F)(F)F` as the molecule, how does the half-life [1] read?
Answer: 0.467 h

Question: What about the Cmax [2] of the same molecule?
Answer: 12100 nM

Question: What about the IC50 [3] of the same molecule?
Answer: 0.7 nM

Question: And the IC50 [4]?
Answer: > 40000 nM

Question: What about the half-life [5] of the same molecule?
Answer: 9.3 h

Question: And the IC50 [6]?
Answer: 1 nM

Question: What about the IC50 [7] of the same molecule?
Answer: 0.9 nM

Question: And the bioavailability [8]?
Answer: 14%

Question: What about the Selectivity Index [9] of the same molecule?
Answer: 6

Question: What about the IC50 [10] of the same molecule?
Answer: 0.6 nM

Question: And the IC50 [11]?
Answer: 0.1 nM

Question: And the EC50 [12]?
Answer: 1.1 nM

Question: And the half-life [13]?
Answer: 8.2 h

Question: What about the IC50 [14] of the same molecule?
Answer: 6.3 nM

Question: And the EC50 [15]?
Answer: 11 nM

Question: What about the AUC [16] of the same molecule?
Answer: 0.898 µM·h

Question: And the bioavailability [17]?
Answer: 87%

Question: What about the clearance [18] of the same molecule?
Answer: 9.3 mL/min/kg

Question: And the half-life [19]?
Answer: 3 h

Question: And the half-life [20]?
Answer: 9.3 h

Question: And the concentration at 24 h [21]?
Answer: 3850 nM

Question: What about the IC50 [22] of the same molecule?
Answer: 5.6 nM

Question: And the EC50 [23]?
Answer: 6 nM

Question: And the IC50 [24]?
Answer: 0.1 nM

Question: And the EC50 [25]?
Answer: 14 nM

Question: And the Selectivity Index [26]?
Answer: 4

Question: What about the concentration at 24 h [27] of the same molecule?
Answer: 838 nM

Question: What about the IC50 [28] of the same molecule?
Answer: 0.8 nM

Question: And the Selectivity Index [29]?
Answer: 9

Question: What about the AUC(0-t) at 24 h [30] of the same molecule?
Answer: 151 µM·h

Question: What about the IC50 [31] of the same molecule?
Answer: > 40000 nM

Question: What about the Selectivity Index [32] of the same molecule?
Answer: 2

Question: What about the IC50 [33] of the same molecule?
Answer: 2850 nM

Question: And the Selectivity Index [34]?
Answer: 1

Question: What about the EC50 [35] of the same molecule?
Answer: 1.4 nM

Question: And the IC50 [36]?
Answer: 2 nM

Question: And the IC50 [37]?
Answer: 7.5 nM

Question: What about the IC50 [38] of the same molecule?
Answer: 0.2 nM

Question: And the concentration at 24 h [39]?
Answer: 1 nM

Question: What about the clearance [40] of the same molecule?
Answer: 0.3 mL/min/kg

Question: And the clearance [41]?
Answer: 0.3 mL/min/kg

Question: What about the IC50 [42] of the same molecule?
Answer: 0.1 nM

Question: What about the Selectivity Index [43] of the same molecule?
Answer: 6

Question: What about the EC50 [44] of the same molecule?
Answer: 2.8 nM

Question: What about the IC50 [45] of the same molecule?
Answer: 0.9 nM
